From PMC11732879, “Preclinical evaluation of ^225Ac-labeled minigastrin analog DOTA-CCK-66 for Targeted Alpha Therapy” (European Journal of Nuclear Medicine and Molecular Imaging, 2024)
*1 amine or outer side, *2 acyl side, *3 side chain or, on linkers, in order; H or OH if unused. Where a SMILES comes first, the peptide text is derived from it. [ ]: non-standard residue; d: D form. The star is where a group is joined. DOTA = O=C(O)CN1CCN(CC(=O)O)CCN(CC(=O)*)CCN(CC(=O)O)CC1; d(γGlu) = O=C(O)[C@@H](CCC(=O)[*:2])N[*:1]; 1Nal = N[C@@H](Cc1cccc2ccccc12)C(=O)O; NMeNle = CCCC[C@H](NC)C(=O)O; PEG4 = NCCOCCOCCOCCOCCC(=O)O

Columns and labels:
AR42J tumor = test: Single-dose treatment study (tumor volume, survival); format: in vivo, 394-NOD SCID mice; conditions: for Tumor volume: single injection on day 0: [225Ac] 37 kBq (178 pmol), caliper, mean±SD, n=5
Description: AR42J cells (2 × 10^6 cells, 100 µL suspended in Matrigel) were subcutaneously inoculated into the right shoulder region of mice. When tumors reached 30 to 290 mm^3 (14 to 17 d after inoculation), […] into 3 groups (5 per group). On day 0 of the experiment mice received a single-dose injection of either [^68Ga]Ga-DOTA-CCK-66 (1.1 MBq, PET/CT imaging, control cohort), [^177Lu]Lu-DOTA-CCK-66 (37 MBq) or [^225Ac]Ac-DOTA-CCK-66 (37 kBq). Tumor volume (caliper measurements, length^2 × width/2) and body weight of all animals were subsequently monitored twice a week. Animals were sacrificed after reaching one of the end-point criteria (weight loss of more than 20%, tumor volume of more than 2,000 mm^3, ulceration of the tumor, respiratory distress, or change of behavior).

in vivo = test: in vivo; design: species or system 394-NOD SCID mice; conditions: 394-NOD SCID, mouse, 1.1 MBq
Description: Static PET/CT images of control group animals were acquired (n = 5) 1 h after injection of [^68Ga]Ga-DOTA-CCK-66 using a preclinical PET/CT scanner (Genisys 8 PET/CT; Sofie Biosciences, Dulles, VA, USA), according to a published procedure. PET image reconstruction was carried out using a maximum-likelihood expectation maximization with 60 iterations. Correction for photon attenuation of all images was performed. Acquisition parameters for CT applications were 40 kVp and […]. Acquired data were analyzed using OsiriX Imaging Software (version 3.9.3; Pixmeo SARL, Bernex, Switzerland).

Structure (SMILES)	fold increase in mean survival, 225Ac-TAT compared to 177Lu-RLT (AR42J tumor; 54 d versus 37 d, p = 0.0003)	Tumor volume (AR42J tumor; day 0, [177Lu] 37 MBq (1.7 nmol), [68Ga] control cohort 1.1 MBq (29 pmol))	Tumor volume (AR42J tumor; day 3, [177Lu] 37 MBq (1.7 nmol), [68Ga] control cohort 1.1 MBq (29 pmol))	Tumor volume (AR42J tumor; day 7, [177Lu] 37 MBq (1.7 nmol), [68Ga] control cohort 1.1 MBq (29 pmol))	Tumor volume (AR42J tumor; day 10, [177Lu] 37 MBq (1.7 nmol), [68Ga] control cohort 1.1 MBq (29 pmol))	Tumor volume (AR42J tumor; day 14, [177Lu] 37 MBq (1.7 nmol))	Tumor volume (AR42J tumor; day 17, [177Lu] 37 MBq (1.7 nmol))	Tumor volume (AR42J tumor; day 21, [177Lu] 37 MBq (1.7 nmol))	Tumor volume (AR42J tumor; day 24, [177Lu] 37 MBq (1.7 nmol))	Tumor volume (AR42J tumor; day 28, [177Lu] 37 MBq (1.7 nmol))	Tumor volume (AR42J tumor; day 31, [177Lu] 37 MBq (1.7 nmol))	Tumor volume (AR42J tumor; day 35)	Tumor volume (AR42J tumor; day 38)	Tumor volume (AR42J tumor; day 42)	Tumor volume (AR42J tumor; day 45)	Tumor volume (AR42J tumor; day 49)	Mean survival (AR42J tumor; single dose on day 0: [225Ac] 37 kBq, [177Lu] 37 MBq, [68Ga] 1.1 MBq (control group), n=5 per group)	fold increase in mean survival versus control group (AR42J tumor; single dose: [225Ac] 37 kBq, [177Lu] 37 MBq, control 12 ± 3 d)	SUV at 1 h (in vivo)
CCCC[C@@H](C(=O)N[C@@H](CC(=O)O)C(=O)N[C@@H](Cc1cccc2ccccc12)C(N)=O)N(C)C(=O)[C@H](Cc1c[nH]c2ccccc12)NC(=O)CCOCCOCCOCCOCCNC(=O)CC[C@@H](NC(=O)CN1CCN(CC(=O)O)CCN(CC(=O)O)CCN(CC(=O)O)CC1)C(=O)O [[^225Ac]Ac-DOTA-CCK-66] [metal not drawn] ({DOTA-d(γGlu)-PEG4}-W[NMeNle]D[1Nal]-NH2)	1.5 fold	150±80 mm^3	170±110 mm^3	130±60 mm^3	100±60 mm^3	100±50 mm^3	100±50 mm^3	90±60 mm^3	130±70 mm^3	130±80 mm^3	160±90 mm^3	240±130 mm^3	470±280 mm^3	740±430 mm^3	1,040±690 mm^3	1,600±830 mm^3	54 ± 6 days	4.5 fold	–
CCCC[C@@H](C(=O)N[C@@H](CC(=O)O)C(=O)N[C@@H](Cc1cccc2ccccc12)C(N)=O)N(C)C(=O)[C@H](Cc1c[nH]c2ccccc12)NC(=O)CCOCCOCCOCCOCCNC(=O)CC[C@@H](NC(=O)CN1CCN(CC(=O)O)CCN(CC(=O)O)CCN(CC(=O)O)CC1)C(=O)O [[^68Ga]Ga-DOTA-CCK-66, metal not drawn] ({DOTA-d(γGlu)-PEG4}-W[NMeNle]D[1Nal]-NH2)	–	–	–	–	–	–	–	–	–	–	–	–	–	–	–	–	–	–	2.02 ± 0.77 SUV
